Patent publication US20020143062A1, “Method to incorporate N-(4-hydroxyphenyl) retinamide in liposomes” (Board of Regents, The University of Texas System, priority 2000, published 2002)
Where two headings read alike, the source gives them in different places.

Assays:
[1] = 100 μM
Description: The shelf stability of liposomal 4-HPR with free 4-HPR was compared. Liposomal 4-HPR and free 4-HPR were diluted with 0.9% normal saline at 100 μM concentration, and incubated at room temperature under subdued light. At various time points, absorbance at 345 nm was measured as a parameter of 4-HPR stability. All data are expressed as % of absorbance at time zero, which is considered as 100%.

SK-Br-3 = test: NO production, nitrite (Table 10); format: cell-based; conditions: Herceptin − or + as labelled
Source text: (§1) Overexpression/amplification of the Her-2/neu oncogene has been associated with poor prognosis for breast cancer.

MDA-MB-453 [2] = test: NO production, nitrite (Table 10); format: cell-based; conditions: Herceptin − or + as labelled
Source text: as §1

BT-474 [3] = test: NO production, nitrite (Table 10); format: cell-based; conditions: Herceptin − or + as labelled
Source text: as §1

MDA-MB-231 = test: Cellular proliferation assay, IC50 of retinoids with/without cyclosporin A; format: cell-based; conditions: for IC50: Homo sapiens
BT-474 [4] = test: as above; format: cell-based; conditions: for IC50: Homo sapiens
MDA-MB-453 [5] = test: as above; format: cell-based; conditions: for IC50: Homo sapiens
BT-474 cells = test: Growth and viability, Celltiter 96 Aqueous (MTS) cell proliferation assay; format: cell-based; conditions: Homo sapiens, BT-474, 72 h, 3 days, % of untreated cells, read-out: Growth and viability (%) after treatment
Description: (§2) Breast cancer cell lines were plated in 96 well plates in DMEM/F12 medium supplemented with 5% fetal calf serum and incubated with different concentrations of liposomal 4-HPR and free 4-HPR, respectively. At the end of incubation, the growth of cells was determined by the Celltiter 96 Aqueous nonradioactive cell proliferation assay (Promega Corp., Madison, Wis.) according to the manufacturer's protocol. Growth and viability of cells were determined by MTS assay after treatment with 4-HPR for 3 days (BT-474) and 4 days (MCF7). Growth of treated cells was compared with that of untreated cells cultured under the same conditions, and was expressed as % of untreated cells.

MCF-7 cells = test: as above; format: cell-based; conditions: Homo sapiens, MCF7, 96 h, 4 days, % of untreated cells, read-out: Growth and viability (%) after treatment
Description: as §2

MCF-7/WT = test: Cellular proliferation assay, IC50 of retinoids with/without cyclosporin A; format: cell-based; conditions: for IC50: Homo sapiens
[6] = test system: ER-negative MDA-MB-231 cells; test: NO production, nitrite (Table 8); format: cell-based; conditions: alone or with cyclosporin A 4 μg/ml as labelled, 3 days
Source text: (§3) Liposomal 4-HPR in combination with cyclosporin A, increased iNOS production of NO in breast cancer cells (Table 3-5). […] Furthermore, an increase in the production of NO in these cells was not indicated with other retinoids such as CD437 and ATRA.

MCF-7/ADR = test: Cellular proliferation assay, IC50 of retinoids with/without cyclosporin A; format: cell-based; conditions: for IC50: Homo sapiens, NCI/ADR-RES
ER-positive MCF-7 cells [7] = test: NO production, nitrite assay (Table 6); format: cell-based; conditions: 4HPR 1 μM alone, 5 days
Source text: (§4) Nitric oxide (NO), an important biological second messenger, is known to induce growth inhibition and apoptosis in cells. Nitric oxide (NO) is biosynthesized by isoenzymes called nitric oxide synthases. One such isoenzyme, inducible NOS (iNOS), is present only after cytokine induction, such as interferon-γ (IFN-γ). […] Here, the ability of liposomal 4-HPR and IFN-γ to induce NO production and growth inhibition in breast cancer positive (Table 5) and breast cancer negative (Table 6) cells is examined by nitrite assays and growth inhibition assays, as known to the skilled artisan.
(§5) It is also known to those skilled in the art that nitric oxide (NO) is a biologic mediator derived from the amino acid L-arginine. A family of enzymes, known as nitric oxide synthase (NOS), act upon L-arginine to oxidize one of the guanidino nitrogens to nitric oxide while citrulline is formed from the remainder of the L-arginine molecule.

ER-positive MCF-7 cells [8] = test: Growth inhibition, cell count (Table 5); format: cell-based; conditions: 4HPR 1 μM alone; 5 days
Source text: as §4

[9] = cited from earlier work
ER-positive MCF-7 cells [10] = test: NO production, nitrite assay (Tables 5 and 7); format: cell-based
Source text: as §4, §5, §3

ER-positive MCF-7 cells [11] = test: Growth inhibition, cell count (Table 6); format: cell-based; conditions: 4HPR 1 μM alone, 5 days
Source text: Nitric oxide (NO), an important biological second messenger, is known to induce growth inhibition and apoptosis in cells. Nitric oxide (NO) is biosynthesized by isoenzymes called nitric oxide synthases. […]

[12] = Incorporation efficiency of 4-HPR into liposomes (OD345 after/before separation); format: physicochemical
Description: The mixture was frozen in acetone-dry ice bath, and then dried by lyophilzer. It was stored as a powder and resuspended with saline before use.
To determine the incorporation efficiency of 4-HPR into liposomes, liposomal 4-HPR powder was resuspended in saline and any free, unincorporated free 4-HPR was separated by centrifugation at 30,000× g for 1 hour. Liposomal 4-HPR was collected as a pellet and washed three times with saline. 4-HPR concentration was determined by absorbance at 345 nm. To remove the interference by liposomal turbidity, absorbance was measured after liposomal 4-HPR before and after separation was diluted with 1:1 mixture of dimethylsulfoxide and water. The incorporation efficiency was calculated by the following equation:
Incorporation efficiency=OD345 (after separation)/OD345 (before separation)×100%

[13] = cotreatment with CsA 2 μg/ml, read-out: IC50 With CsA
[14] = without cyclosporin A, read-out: IC50 Without CsA

CC1=C(/C=C/C(C)=C/C=C/C(C)=C/C(=O)Nc2ccc(O)cc2)C(C)(C)CCC1 [4-HPR, N-(4-hydroxyphenyl) retinamide]
% remaining (absorbance at 345 nm as % of time zero) ([1]; 0 h): 100%
% remaining (absorbance at 345 nm as % of time zero) ([1]; 24 h): 85%
% remaining (absorbance at 345 nm as % of time zero) ([1]; 48 h): 84%
% remaining (absorbance at 345 nm as % of time zero) ([1]; 72 h): 71%
% remaining (absorbance at 345 nm as % of time zero) ([1]; 96 h): 61%
% remaining (absorbance at 345 nm as % of time zero) ([1]; 120 h): 51%
% remaining (absorbance at 345 nm as % of time zero) ([1]; 168 h): 32%
Nitrite (NO production) (SK-Br-3; 4HPR 1 μM): 34.9 ± 1.2 μM Nitrite /1 × 10^6 cells
Nitrite (NO production) (SK-Br-3; 4HPR 2.5 μM): 75.2 ± 5.1 μM Nitrite /1 × 10^6 cells
Nitrite (NO production) (MDA-MB-453 [2]; 4HPR 1 μM): 30.9 ± 1.5 μM Nitrite /1 × 10^6 cells
Nitrite (NO production) (MDA-MB-453 [2]; 4HPR 2.5 μM): 68.1 ± 3.4 μM Nitrite /1 × 10^6 cells
Nitrite (NO production) (BT-474 [3]; 4HPR 1 μM): 45.8 ± 0. μM Nitrite /1 × 10^6 cells
Nitrite (NO production) (BT-474 [3]; 4HPR 2.5 μM): 146.9 ± 2.8 μM Nitrite /1 × 10^6 cells
-Fold ↑ (IC50 without CsA / with CsA) (MDA-MB-231; CsA 2 μg/ml): 6.37 -Fold
IC50 (MDA-MB-231; [13]): 1.23 µM
IC50 (MDA-MB-231; [14]): 7.84 µM
-Fold ↑ (IC50 without CsA / with CsA) (BT-474 [4]; CsA 2 μg/ml): 1.81 -Fold
IC50 (BT-474 [4]; [13]): 1.99 µM
IC50 (BT-474 [4]; [14]): 3.61 µM
-Fold ↑ (IC50 without CsA / with CsA) (MDA-MB-453 [5]; CsA 2 μg/ml): 3.26 -Fold
IC50 (MDA-MB-453 [5]; [13]): 1.9 µM
IC50 (MDA-MB-453 [5]; [14]): 6.2 µM
viability at 0.1 µM (BT-474 cells; 0.1 μM 4-HPR): 100 ± 13.4%
viability at 0.9 µM (BT-474 cells; 0.9 μM 4-HPR): 109 ± 4.1%
viability at […] (BT-474 cells; 1.5 μM 4-HPR): 99.4 ± 12.1%
viability at 2.3 µM (BT-474 cells; 2.3 μM 4-HPR): 76.9 ± 5.3%
viability at 3.8 µM (BT-474 cells; 3.8 μM 4-HPR): 52.6 ± 3.7%
viability at 9 µM (BT-474 cells; 9.0 μM 4-HPR): 17.1 ± 2.8%
viability at 0.1 µM (MCF-7 cells; 0.1 μM 4-HPR): 106 ± 7.8%
viability at 0.9 µM (MCF-7 cells; 0.9 μM 4-HPR): 77.5 ± 5.8%
viability at […] (MCF-7 cells; 1.5 μM 4-HPR): 43.8 ± 5.7%
viability at 1.8 µM (MCF-7 cells; 1.8 μM 4-HPR): 33.6 ± 2%
viability at 3.6 µM (MCF-7 cells; 3.6 μM 4-HPR): 17.8 ± 1.5%
-Fold ↑ (IC50 without CsA / with CsA) (MCF-7/WT; CsA 2 μg/ml): 3.11 -Fold
IC50 (MCF-7/WT; MCF7, cotreatment with CsA 2 μg/ml, read-out: IC50 With CsA): 1.21 µM
IC50 (MCF-7/WT; MCF7, without cyclosporin A, read-out: IC50 Without CsA): 3.76 µM
Nitrite (NO production) ([6]; 4HPR 2.5 μM): 22.8 μM Nitrite /1 × 10^6 cells
Nitrite (NO production) ([6]; 4HPR 6.0 μM): 26.7 μM Nitrite /1 × 10^6 cells
-Fold ↑ (IC50 without CsA / with CsA) (MCF-7/ADR; CsA 4 μg/ml): 2.47 -Fold
IC50 (MCF-7/ADR; cotreatment with CsA 4 μg/ml, read-out: IC50 With CsA): 2.7 µM
IC50 (MCF-7/ADR; [14]): 6.66 µM
Nitrite (NO production) (ER-positive MCF-7 cells [7]): 36.9 ± 5.8 μM Nitrite /1 × 10^6 cells
Cell count (ER-positive MCF-7 cells [8]): 20 × 10^4
solubility in water [9]: poorly soluble in water
Nitrite (NO production) (ER-positive MCF-7 cells [10]; 4HPR 1 μM alone, 5 days, text: liposomal 4-HPR): 72.6 ± 1.7 μM Nitrite /1 × 10^6 cells
Nitrite (NO production) (ER-positive MCF-7 cells [10]; 4HPR 1.0 μM, alone or with cyclosporin A 4 μg/ml as labelled, 3 days): 12.5 μM Nitrite /1 × 10^6 cells
Nitrite (NO production) (ER-positive MCF-7 cells [10]; 4HPR 2.0 μM, alone or with cyclosporin A 4 μg/ml as labelled, 3 days): 33.8 μM Nitrite /1 × 10^6 cells
Cell count (ER-positive MCF-7 cells [11]): 34 × 10^4
incorporation efficiency ([12]; by optimizing ratio of 4-HPR to lipid mixture and ratio of DMPC to soybean oil): up to 96%
Incorporation efficiency (%) ([12]; composition column 1 of 7: 4-HPR:Lipid (w/w) 1:17, DMPC:soybean oil 1:0, water in tertiary butyl alcohol 0): 60.0%
Incorporation efficiency (%) ([12]; composition column 2 of 7: 4-HPR:Lipid 1:17, DMPC:soybean oil 1:0, water in tertiary butyl alcohol 1): 81.5%
Incorporation efficiency (%) ([12]; composition column 3 of 7: water in tertiary butyl alcohol 1, lipid ratios not resolvable (header spans lost), DMPC:soybean oil 9:1): 87.5%
Incorporation efficiency (%) ([12]; composition column 4 of 7: water in tertiary butyl alcohol 10, lipid ratios not resolvable (header spans lost)): 92.8%
Incorporation efficiency (%) ([12]; composition column 5 of 7: water in tertiary butyl alcohol 1, lipid ratios not resolvable (header spans lost), DMPC:soybean oil 8:2): 77.5%
Incorporation efficiency (%) ([12]; composition column 6 of 7: 4-HPR:Lipid 1:5 (likely), DMPC:soybean oil 9:1, water in tertiary butyl alcohol 10): 88.3%
Incorporation efficiency (%) ([12]; composition column 7 of 7: 4-HPR:Lipid 1:15, DMPC:soybean oil 9:1, water in tertiary butyl alcohol 10): 96.4%
